Experimental data reported in article doi:10.1101/2025.05.17.654689v2 (biorxiv, 2025).

Tested on: QgIspS1-like (ΔTP-QgIspS1-like-6×His)
Assay: GC-MS
Assay type: biochemical, Quercus glauca
Details: 20 mM MgCl2, 37 °C, 30 min; from formation of the main product trans-β-ocimene

Question: With `CC(C)=CCC/C(C)=C/COP(=O)(O)OP(=O)(O)O` [GPP] as the molecule, how does the Km read?
Answer: Its Km is 180 ± 40 µM.
